Laboratory results taken from publication PMC11421016, “Biotransformation and Epithelial Toxicity of Prenylated Phenolics from Licorice Roots (Glycyrrhiza spp.) in 3D Apical-Out Mucus-Producing Human Enteroids” (Journal of Agricultural and Food Chemistry, 2024).

Tested on: human apical-out ileal enteroids
Experiment: Biotransformation in apical-out ileal enteroids (RP-UHPLC-PDA-MSn)
Type: in vitro ADME
Conditions: glycy 265 μM at t = 0 h
Description: Biotransformation of glab, licoA, and glycy in apical-out and apical-in enteroids was evaluated after 0, 4, and 24 h of incubation. For this, apical-out enteroids were stimulated with 50 μg mL^–1 (154 μM) glab, or with 100 μg mL^–1 licoA (296 μM), or 100 μg mL^–1 glycy (272 μM), and apical-in enteroids were stimulated with 50 μg mL^–1 glab (154 μM), 50 μg mL^–1 licoA (148 μM), or 50 μg mL^–1 glycy (136 μM). […] For apical-out enteroids, parent compounds and their transformation products were assessed on the enteroids’ apical (facing the medium) and basolateral side (inside the enteroids) and intracellularly. In apical-in enteroids, parent compounds and metabolites were assessed on the basolateral side (facing the medium). For the apical release, apical-out enteroids were pelleted (250g, 3 min, 4 °C), and the supernatant was used for LC-MS analysis, after which the enteroids were washed with PBS. Enteroids in a suspension in fresh PBS were broken up by vigorously pipetting up and down approximately for 20 times, after which enteroids were pelleted and the supernatant was used to determine basolateral release by using LC-MS. Enteroids were washed with PBS, and the enteroids’ cells in fresh PBS were disrupted on ice with a digital sonifier (Branson Ultrasonics Corporation, Danbury, CT, USA) with the following settings: a 5 s pulse, a 10 s pause, an amplitude of 55%, and 12 cycles. Enteroids were pelleted, and the supernatant was used as a measure for intracellular release and measured with LC-MS.
Samples were separated on a Thermo Vanquish UHPLC system (Thermo Scientific, San Jose, CA, USA) equipped with a pump, a degasser, an autosampler, and a PDA detector, as described elsewhere.[15] Eluents used were (A) LC-MS-grade MQ + 0.1% FA (v/v) and (B) LC-MS-grade ACN + 0.1% FA (v/v). The elution program was started by running isocratically at 1% B for 1.09 min followed by a 1.09–26.16 min linear gradient to 70% B, a 26.16–27.25 min linear gradient to 100% B, and 27.25–32.70 min isocratically at 100% B. The eluent was adjusted to start conditions in 1.09 min followed by equilibration of 5.45 min.
Mass spectrometric data were acquired using an LTQ Velos Pro linear ion trap mass spectrometer (Thermo Scientific), equipped with a heated ESI probe coupled in-line to the Vanquish UHPLC system, as described elsewhere.[15] Data were processed using Xcalibur 4.1 (Thermo Scientific).
Quantification of glab, licoA, glycy, and produced metabolites was based on UV absorbance at 280 nm (glab), 340–390 nm (licoA), and 320–370 nm (glycy). For this, a seven-point calibration (0.01–150 μg mL^–1) curve based on external standards of glab, licoA, and glycy (R^2 > 0.999) was used. UV peaks were integrated using the AVALON integration algorithm with the autocalc function (Xcalibur 4.1). Metabolites were quantified as glab, licoA, or glycy equivalents.

Substance: glycycoumarin-glucuronide [glycy-glucuronide]
- glucuronide concentration released at the apical side (after 4 h): ~3 µM
- glucuronide concentration released at the apical side (after 24 h): ~16 µM
